Results as given in patent US6043217A, “Amide derivative of amythiamicin” (Zaidan Hojin Biseibutsu Kagaku Kenyu Kai, priority 1996, dated 2000).

Experiments:
Assay type in all cases: cell-based
[1] = system: Staphylococcus aureus FDA 209P; assay: MIC, standard serial dilution method; conditions: Muller-Hinton agar medium, 37° C.
[2] = system: Staphylococcus aureus Smith; assay: MIC, standard serial dilution method; conditions: Muller-Hinton agar medium, 37° C.
[3] = system: Staphylococcus aureus MS 9610; assay: MIC, standard serial dilution method; conditions: Muller-Hinton agar medium, 37° C.
[4] = system: Staphylococcus aureus No. 5 (MRSA); assay: MIC, standard serial dilution method; conditions: Muller-Hinton agar medium, 37° C.
[5] = system: Staphylococcus aureus No. 17 (MRSA); assay: MIC, standard serial dilution method; conditions: Muller-Hinton agar medium, 37° C.
[6] = system: Staphylococcus aureus MS 16526; assay: MIC, standard serial dilution method; conditions: Muller-Hinton agar medium, 37° C.
[7] = system: Staphylococcus aureus TY-0428; assay: MIC, standard serial dilution method; conditions: Muller-Hinton agar medium, 37° C.
[8] = system: Micrococcus luteus FDA 16; assay: MIC, standard serial dilution method; conditions: Muller-Hinton agar medium, 37° C.
[9] = system: Micrococcus luteus IFO 3333; assay: MIC, standard serial dilution method; conditions: Muller-Hinton agar medium, 37° C.
[10] = system: Micrococcus luteus PIC 1001; assay: MIC, standard serial dilution method; conditions: Muller-Hinton agar medium, 37° C.
Bacillus anthracis = conditions: Muller-Hinton agar medium, 37° C.
[11] = system: Bacillus subtilis NRRL B-558; assay: MIC, standard serial dilution method; conditions: Muller-Hinton agar medium, 37° C.
[12] = system: Bacillus subtilis PCI 219; assay: MIC, standard serial dilution method; conditions: Muller-Hinton agar medium, 37° C.
[13] = system: Bacillus cereus ATCC 10702; assay: MIC, standard serial dilution method; conditions: Muller-Hinton agar medium, 37° C.
[14] = system: Corynebacterium bovis 1810; assay: MIC, standard serial dilution method; conditions: Muller-Hinton agar medium, 37° C.
Escherichia coli NIHJ = assay: MIC, standard serial dilution method; conditions: Muller-Hinton agar medium, 37° C.
Escherichia coli K-12 = assay: MIC, standard serial dilution method; conditions: Muller-Hinton agar medium, 37° C.
Escherichia coli BEM 11 = assay: MIC, standard serial dilution method; conditions: Muller-Hinton agar medium, 37° C.
[15] = system: Escherichia coli BEM 1121; assay: MIC, standard serial dilution method; conditions: Muller-Hinton agar medium, 37° C.
Escherichia coli BE 1186 = assay: MIC, standard serial dilution method; conditions: Muller-Hinton agar medium, 37° C.
[16] = system: Shigella dysenteria JS 11910; assay: MIC, standard serial dilution method; conditions: Muller-Hinton agar medium, 37° C.
[17] = system: Escherichia coli K-12 ML 1692; assay: MIC, standard serial dilution method; conditions: Muller-Hinton agar medium, 37° C.
Procedure: (§1) The antibacterial activities of the amythiamicin amide derivative of the general formula (I) according to this invention are now concretely described. Compounds No. 1 to No. 11 according to this invention, which were respectively prepared in Examples 1 to 11 hereinafter given, were tested as the test compounds for their minimum inhibitory concentrations (MIC.) (μg/ml) against growth of a variety of test microorganisms by a standard serial dilution method. In the tests, the incubation medium used was Muller-Hinton agar medium and the incubation temperature was 37° C. The test results are shown as antibacterial spectra in the following Tables 2 and 3.

[18] = system: Shigella clexnerl JS 11749; assay: MIC, standard serial dilution method; conditions: Muller-Hinton agar medium, 37° C.
Procedure: as §1

Shigella sonnei JS 11746 = assay: MIC, standard serial dilution method; conditions: Muller-Hinton agar medium, 37° C.
Procedure: as §1

Salmonella typhi T-63 = assay: MIC, standard serial dilution method; conditions: Muller-Hinton agar medium, 37° C.
[19] = system: Salmonella enteritidis 1891; assay: MIC, standard serial dilution method; conditions: Muller-Hinton agar medium, 37° C.
Proteus vulgaris OX 19 = assay: MIC, standard serial dilution method; conditions: Muller-Hinton agar medium, 37° C.
[20] = system: Proteus mirabilis IFM OM-9; assay: MIC, standard serial dilution method; conditions: Muller-Hinton agar medium, 37° C.
[21] = system: Providencia rettgeri GN 311; assay: MIC, standard serial dilution method; conditions: Muller-Hinton agar medium, 37° C.
[22] = system: Providencia rettgeri GN 466; assay: MIC, standard serial dilution method; conditions: Muller-Hinton agar medium, 37° C.
Serratia marcescens = assay: MIC, standard serial dilution method; conditions: Muller-Hinton agar medium, 37° C.
[23] = system: Pseudomonas aeruginosa A3; assay: MIC, standard serial dilution method; conditions: Muller-Hinton agar medium, 37° C.
[24] = system: Pseudomonas aeruginosa GN315; assay: MIC, standard serial dilution method; conditions: Muller-Hinton agar medium, 37° C.
[25] = system: Klebsiella pneumonia PCI 602; assay: MIC, standard serial dilution method; conditions: Klebsiella pneumonia PCI 602 (Table 2); Muller-Hinton agar medium, 37° C.
[26] = system: Mycobacterium smegmatis ATCC 607; assay: MIC, standard serial dilution method; conditions: Muller-Hinton agar medium, 37° C.
Candida albicans 3147 = assay: MIC, standard serial dilution method; conditions: Muller-Hinton agar medium, 37° C.

| Structure (SMILES) | Minimum growth inhibitory concentrations (MIC.) [1] | Minimum growth inhibitory concentrations (MIC.) [2] | Minimum growth inhibitory concentrations (MIC.) [3] | Minimum growth inhibitory concentrations (MIC.) [4] | Minimum growth inhibitory concentrations (MIC.) [5] | Minimum growth inhibitory concentrations (MIC.) [6] | Minimum growth inhibitory concentrations (MIC.) [7] | Minimum growth inhibitory concentrations (MIC.) [8] | Minimum growth inhibitory concentrations (MIC.) [9] | Minimum growth inhibitory concentrations (MIC.) [10] | Minimum growth inhibitory concentrations (MIC.) (Bacillus anthracis) | Minimum growth inhibitory concentrations (MIC.) [11] | Minimum growth inhibitory concentrations (MIC.) [12] | Minimum growth inhibitory concentrations (MIC.) [13] | Minimum growth inhibitory concentrations (MIC.) [14] | Minimum growth inhibitory concentrations (MIC.) (Escherichia coli NIHJ) | Minimum growth inhibitory concentrations (MIC.) (Escherichia coli K-12) | Minimum growth inhibitory concentrations (MIC.) (Escherichia coli BEM 11) | Minimum growth inhibitory concentrations (MIC.) [15] | Minimum growth inhibitory concentrations (MIC.) (Escherichia coli BE 1186) | further results |
| --- | --- | --- | --- | --- | --- | --- | --- | --- | --- | --- | --- | --- | --- | --- | --- | --- | --- | --- | --- | --- | --- |
| CNC(=O)CC1NC(=O)c2csc(n2)-c2ccc(-c3nc(C(=O)NCCCN)cs3)nc2-c2csc(n2)-c2csc(n2)C(C(C)C)NC(=O)CNC(=O)c2csc(n2)C(C(C)C)NC(=O)c2nc1sc2C (stereo not drawn) [Compound No. 5] | 0.78 µg/mL | 3.12 µg/mL | 3.12 µg/mL | 6.25 µg/mL | 6.25 µg/mL | 6.25 µg/mL | 3.12 µg/mL | 12.5 µg/mL | 3.12 µg/mL | 0.78 µg/mL | 0.78 µg/mL | 6.25 µg/mL | 3.12 µg/mL | 1.56 µg/mL | > 100 µg/mL | > 100 µg/mL | > 100 µg/mL | > 100 µg/mL | > 100 µg/mL | > 100 µg/mL | Minimum growth inhibitory concentrations (MIC.) [16]: > 100 µg/mL; Minimum growth inhibitory concentrations (MIC.) [17]: > 100 µg/mL; Minimum growth inhibitory concentrations (MIC.) [18]: > 100 µg/mL; Minimum growth inhibitory concentrations (MIC.) (Shigella sonnei JS 11746): > 100 µg/mL; Minimum growth inhibitory concentrations (MIC.) (Salmonella typhi T-63): > 100 µg/mL; Minimum growth inhibitory concentrations (MIC.) [19]: > 100 µg/mL; Minimum growth inhibitory concentrations (MIC.) (Proteus vulgaris OX 19): > 100 µg/mL; Minimum growth inhibitory concentrations (MIC.) [20]: > 100 µg/mL; Minimum growth inhibitory concentrations (MIC.) [21]: > 100 µg/mL; Minimum growth inhibitory concentrations (MIC.) [22]: > 100 µg/mL; Minimum growth inhibitory concentrations (MIC.) (Serratia marcescens): > 100 µg/mL; Minimum growth inhibitory concentrations (MIC.) [23]: > 100 µg/mL; Minimum growth inhibitory concentrations (MIC.) [24]: > 100 µg/mL; Minimum growth inhibitory concentrations (MIC.) [25]: > 100 µg/mL; Minimum growth inhibitory concentrations (MIC.) [26]: > 100 µg/mL; Minimum growth inhibitory concentrations (MIC.) (Candida albicans 3147): > 100 µg/mL |
| CCCCNCCCNCCCNC(=O)c1csc(-c2ccc3c(n2)-c2csc(n2)-c2csc(n2)C(C(C)C)NC(=O)CNC(=O)c2csc(n2)C(C(C)C)NC(=O)c2nc(sc2C)C(CC(=O)NC)NC(=O)c2csc-3n2)n1 (stereo not drawn) [Compound No. 6] | 50 µg/mL | 25 µg/mL | > 100 µg/mL | > 100 µg/mL | > 100 µg/mL | > 100 µg/mL | > 100 µg/mL | > 100 µg/mL | > 100 µg/mL | > 100 µg/mL | 25 µg/mL | 25 µg/mL | > 100 µg/mL | > 100 µg/mL | > 100 µg/mL | > 100 µg/mL | > 100 µg/mL | > 100 µg/mL | > 100 µg/mL | > 100 µg/mL | Minimum growth inhibitory concentrations (MIC.) [16]: > 100 µg/mL; Minimum growth inhibitory concentrations (MIC.) [17]: > 100 µg/mL; Minimum growth inhibitory concentrations (MIC.) [18]: > 100 µg/mL; Minimum growth inhibitory concentrations (MIC.) (Shigella sonnei JS 11746): > 100 µg/mL; Minimum growth inhibitory concentrations (MIC.) (Salmonella typhi T-63): > 100 µg/mL; Minimum growth inhibitory concentrations (MIC.) [19]: > 100 µg/mL; Minimum growth inhibitory concentrations (MIC.) (Proteus vulgaris OX 19): > 100 µg/mL; Minimum growth inhibitory concentrations (MIC.) [20]: > 100 µg/mL; Minimum growth inhibitory concentrations (MIC.) [21]: > 100 µg/mL; Minimum growth inhibitory concentrations (MIC.) [22]: > 100 µg/mL; Minimum growth inhibitory concentrations (MIC.) (Serratia marcescens): > 100 µg/mL; Minimum growth inhibitory concentrations (MIC.) [23]: > 100 µg/mL; Minimum growth inhibitory concentrations (MIC.) [24]: > 100 µg/mL; Minimum growth inhibitory concentrations (MIC.) [25]: > 100 µg/mL; Minimum growth inhibitory concentrations (MIC.) [26]: > 100 µg/mL; Minimum growth inhibitory concentrations (MIC.) (Candida albicans 3147): > 100 µg/mL |
| CNC(=O)CC1NC(=O)c2csc(n2)-c2ccc(-c3nc(C(=O)NCCCN(C)CCCNCCc4ccc(Cl)cc4)cs3)nc2-c2csc(n2)-c2csc(n2)C(C(C)C)NC(=O)CNC(=O)c2csc(n2)C(C(C)C)NC(=O)c2nc1sc2C (stereo not drawn) [Compound No. 7] | > 100 µg/mL | > 100 µg/mL | > 100 µg/mL | > 100 µg/mL | > 100 µg/mL | > 100 µg/mL | > 100 µg/mL | 6.25 µg/mL | 12.5 µg/mL | 12.5 µg/mL | > 100 µg/mL | > 100 µg/mL | 50 µg/mL | > 100 µg/mL | 25 µg/mL | > 100 µg/mL | > 100 µg/mL | > 100 µg/mL | > 100 µg/mL | > 100 µg/mL | Minimum growth inhibitory concentrations (MIC.) [16]: > 100 µg/mL; Minimum growth inhibitory concentrations (MIC.) [17]: > 100 µg/mL; Minimum growth inhibitory concentrations (MIC.) [18]: > 100 µg/mL; Minimum growth inhibitory concentrations (MIC.) (Shigella sonnei JS 11746): > 100 µg/mL; Minimum growth inhibitory concentrations (MIC.) (Salmonella typhi T-63): > 100 µg/mL; Minimum growth inhibitory concentrations (MIC.) [19]: > 100 µg/mL; Minimum growth inhibitory concentrations (MIC.) (Proteus vulgaris OX 19): > 100 µg/mL; Minimum growth inhibitory concentrations (MIC.) [20]: > 100 µg/mL; Minimum growth inhibitory concentrations (MIC.) [21]: > 100 µg/mL; Minimum growth inhibitory concentrations (MIC.) [22]: > 100 µg/mL; Minimum growth inhibitory concentrations (MIC.) (Serratia marcescens): > 100 µg/mL; Minimum growth inhibitory concentrations (MIC.) [23]: > 100 µg/mL; Minimum growth inhibitory concentrations (MIC.) [24]: > 100 µg/mL; Minimum growth inhibitory concentrations (MIC.) [25]: > 100 µg/mL; Minimum growth inhibitory concentrations (MIC.) [26]: > 100 µg/mL; Minimum growth inhibitory concentrations (MIC.) (Candida albicans 3147): > 100 µg/mL |
